According to ChEMBL document CHEMBL4834498, “Positive allosteric modulators (PAMs) of the group II metabotropic glutamate receptors: Design, synthesis, and evaluation as ex-vivo tool compounds” (Bioorg Med Chem Lett, 2021):
The source made the active and inactive calls. The calls are words filed in the database; no cut-off is given here.

Assays:
[1] = biological target: Metabotropic glutamate receptor 3 (Rattus norvegicus) (UniProt P31422); assay: Positive allosteric modulator activity at rat mGlu3 receptor transfected in GIRK channel overexpressing cells assessed as potentiation of glutamate-induced response by thallium mobilization assay relative to glutamate; set-up: concentration or dose not given beside the values
[2] = biological target: Metabotropic glutamate receptor 2 (Rattus norvegicus, UniProt P31421); assay: Positive allosteric modulator activity at rat mGlu2 receptor transfected in GIRK channel overexpressing cells assessed as potentiation of glutamate-induced response by thallium mobilization assay
[3] = biological target: Metabotropic glutamate receptor 2 (Rattus norvegicus) (UniProt P31421); assay: Positive allosteric modulator activity at rat mGlu2 receptor transfected in GIRK channel overexpressing cells assessed as potentiation of glutamate -induced response by thallium mobilization assay relative to glutamate; set-up: concentration or dose not given beside the values
[4] = biological target: Metabotropic glutamate receptor 3 (Rattus norvegicus, UniProt P31422); assay: Positive allosteric modulator activity at rat mGlu3 receptor transfected in GIRK channel overexpressing cells assessed as potentiation of glutamate-induced response by thallium mobilization assay
[5] = biological target: Metabotropic glutamate receptor 3 (Mus musculus) (UniProt Q9QYS2); assay: Positive allosteric modulator activity at mGlu3 receptor in CaMK2-Cre::GCaMP6s transgenic mouse PFC pyramidal cells assessed as potentiation of LY379268-induced Ca2+ mobilization at 10 uM in presence of mGlu2 negative allosteric modulator, VU6001966 by calcium imagining analysis; type: functional; conditions: filed as positive allosteric modulator
[6] = filed as positive allosteric modulator

Metabotropic glutamate receptor 3, sequence (P31422 whole entry): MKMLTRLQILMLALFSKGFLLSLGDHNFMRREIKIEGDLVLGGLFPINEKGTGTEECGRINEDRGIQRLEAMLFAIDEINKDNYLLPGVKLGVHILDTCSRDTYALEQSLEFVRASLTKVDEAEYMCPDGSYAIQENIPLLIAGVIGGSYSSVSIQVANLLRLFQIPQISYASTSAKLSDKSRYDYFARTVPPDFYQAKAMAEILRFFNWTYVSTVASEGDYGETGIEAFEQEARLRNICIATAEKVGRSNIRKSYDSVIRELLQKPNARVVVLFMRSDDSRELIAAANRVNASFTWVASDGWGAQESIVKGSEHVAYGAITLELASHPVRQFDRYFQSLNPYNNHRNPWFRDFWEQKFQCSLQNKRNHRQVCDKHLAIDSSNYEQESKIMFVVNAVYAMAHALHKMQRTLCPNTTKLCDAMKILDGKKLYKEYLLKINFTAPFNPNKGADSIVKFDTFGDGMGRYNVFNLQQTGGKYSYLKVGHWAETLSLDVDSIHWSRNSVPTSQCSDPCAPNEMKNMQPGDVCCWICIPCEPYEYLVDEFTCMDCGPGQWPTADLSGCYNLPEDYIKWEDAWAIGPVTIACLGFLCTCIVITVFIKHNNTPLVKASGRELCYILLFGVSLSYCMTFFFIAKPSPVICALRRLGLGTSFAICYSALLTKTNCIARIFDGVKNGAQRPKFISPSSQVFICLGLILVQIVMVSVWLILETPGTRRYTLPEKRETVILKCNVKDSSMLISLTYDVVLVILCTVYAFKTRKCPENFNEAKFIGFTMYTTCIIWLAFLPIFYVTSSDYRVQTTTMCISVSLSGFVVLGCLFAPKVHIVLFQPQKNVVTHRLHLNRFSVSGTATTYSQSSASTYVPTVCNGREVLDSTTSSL
Metabotropic glutamate receptor 2, sequence (P31421 whole entry): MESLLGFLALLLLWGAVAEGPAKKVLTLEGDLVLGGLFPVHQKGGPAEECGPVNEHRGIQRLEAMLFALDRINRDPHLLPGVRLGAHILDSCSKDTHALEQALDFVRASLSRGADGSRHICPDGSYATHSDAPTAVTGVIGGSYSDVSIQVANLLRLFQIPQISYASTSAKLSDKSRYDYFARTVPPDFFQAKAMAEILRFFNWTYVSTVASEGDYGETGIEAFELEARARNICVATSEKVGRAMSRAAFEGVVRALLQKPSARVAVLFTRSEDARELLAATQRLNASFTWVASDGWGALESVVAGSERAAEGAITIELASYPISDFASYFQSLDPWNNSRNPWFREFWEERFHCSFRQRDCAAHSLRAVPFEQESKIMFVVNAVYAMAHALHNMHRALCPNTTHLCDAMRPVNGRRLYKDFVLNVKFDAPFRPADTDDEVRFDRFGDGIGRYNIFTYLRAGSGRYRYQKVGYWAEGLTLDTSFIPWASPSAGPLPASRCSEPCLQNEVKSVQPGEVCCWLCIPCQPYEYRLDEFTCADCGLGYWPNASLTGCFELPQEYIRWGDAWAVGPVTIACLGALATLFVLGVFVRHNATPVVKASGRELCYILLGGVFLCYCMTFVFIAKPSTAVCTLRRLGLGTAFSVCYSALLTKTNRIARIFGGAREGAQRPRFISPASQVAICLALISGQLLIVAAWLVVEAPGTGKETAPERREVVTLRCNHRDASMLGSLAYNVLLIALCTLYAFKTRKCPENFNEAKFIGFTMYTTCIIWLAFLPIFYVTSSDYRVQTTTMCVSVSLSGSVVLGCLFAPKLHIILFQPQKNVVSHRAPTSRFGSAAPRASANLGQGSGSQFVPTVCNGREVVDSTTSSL
Metabotropic glutamate receptor 3 (Rattus norvegicus), sequence (P31422 23-879 limits assumed): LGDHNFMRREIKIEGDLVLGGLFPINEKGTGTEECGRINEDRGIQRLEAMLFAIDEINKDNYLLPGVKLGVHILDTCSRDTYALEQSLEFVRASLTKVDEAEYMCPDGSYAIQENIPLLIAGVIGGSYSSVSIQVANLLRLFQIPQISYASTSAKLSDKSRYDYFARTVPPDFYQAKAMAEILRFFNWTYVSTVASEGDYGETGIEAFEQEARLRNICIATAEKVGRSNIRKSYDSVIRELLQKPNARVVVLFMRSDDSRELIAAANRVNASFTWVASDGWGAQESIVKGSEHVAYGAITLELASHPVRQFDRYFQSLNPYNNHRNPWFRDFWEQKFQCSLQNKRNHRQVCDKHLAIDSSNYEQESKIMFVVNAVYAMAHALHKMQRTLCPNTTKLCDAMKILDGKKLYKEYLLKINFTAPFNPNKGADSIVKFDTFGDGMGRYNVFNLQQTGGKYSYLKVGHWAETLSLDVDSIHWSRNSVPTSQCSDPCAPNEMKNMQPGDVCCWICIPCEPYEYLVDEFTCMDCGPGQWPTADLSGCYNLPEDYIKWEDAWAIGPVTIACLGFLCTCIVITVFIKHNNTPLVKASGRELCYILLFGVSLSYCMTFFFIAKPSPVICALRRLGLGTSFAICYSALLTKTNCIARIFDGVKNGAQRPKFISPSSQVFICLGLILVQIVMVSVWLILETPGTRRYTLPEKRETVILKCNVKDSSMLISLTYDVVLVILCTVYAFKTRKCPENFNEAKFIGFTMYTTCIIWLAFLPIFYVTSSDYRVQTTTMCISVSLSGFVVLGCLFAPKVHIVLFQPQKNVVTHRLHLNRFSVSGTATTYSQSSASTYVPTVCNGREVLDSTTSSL
Metabotropic glutamate receptor 2 (Rattus norvegicus), sequence (P31421 19-872 limits assumed): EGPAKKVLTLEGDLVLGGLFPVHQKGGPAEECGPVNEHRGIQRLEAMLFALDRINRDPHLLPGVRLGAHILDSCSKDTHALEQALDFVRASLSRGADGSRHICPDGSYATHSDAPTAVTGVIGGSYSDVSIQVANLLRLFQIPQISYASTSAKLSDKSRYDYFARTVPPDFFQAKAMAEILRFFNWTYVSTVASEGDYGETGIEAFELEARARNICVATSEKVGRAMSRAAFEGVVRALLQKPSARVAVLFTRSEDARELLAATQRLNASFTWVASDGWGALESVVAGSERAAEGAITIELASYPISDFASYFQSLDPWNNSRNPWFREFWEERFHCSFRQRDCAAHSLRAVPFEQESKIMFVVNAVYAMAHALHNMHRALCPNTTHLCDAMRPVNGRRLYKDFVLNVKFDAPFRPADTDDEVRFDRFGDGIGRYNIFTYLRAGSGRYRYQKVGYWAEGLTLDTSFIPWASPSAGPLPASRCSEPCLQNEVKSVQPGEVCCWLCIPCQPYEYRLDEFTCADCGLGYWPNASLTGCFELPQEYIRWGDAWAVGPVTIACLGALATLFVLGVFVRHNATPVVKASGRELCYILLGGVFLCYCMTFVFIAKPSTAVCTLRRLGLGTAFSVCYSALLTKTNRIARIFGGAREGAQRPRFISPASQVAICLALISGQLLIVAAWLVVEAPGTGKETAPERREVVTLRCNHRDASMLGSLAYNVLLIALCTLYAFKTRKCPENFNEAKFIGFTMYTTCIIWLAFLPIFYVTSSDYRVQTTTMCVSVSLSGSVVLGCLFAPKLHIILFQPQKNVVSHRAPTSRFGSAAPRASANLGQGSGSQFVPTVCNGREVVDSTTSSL
Metabotropic glutamate receptor 3 (Mus musculus), sequence (Q9QYS2 whole entry): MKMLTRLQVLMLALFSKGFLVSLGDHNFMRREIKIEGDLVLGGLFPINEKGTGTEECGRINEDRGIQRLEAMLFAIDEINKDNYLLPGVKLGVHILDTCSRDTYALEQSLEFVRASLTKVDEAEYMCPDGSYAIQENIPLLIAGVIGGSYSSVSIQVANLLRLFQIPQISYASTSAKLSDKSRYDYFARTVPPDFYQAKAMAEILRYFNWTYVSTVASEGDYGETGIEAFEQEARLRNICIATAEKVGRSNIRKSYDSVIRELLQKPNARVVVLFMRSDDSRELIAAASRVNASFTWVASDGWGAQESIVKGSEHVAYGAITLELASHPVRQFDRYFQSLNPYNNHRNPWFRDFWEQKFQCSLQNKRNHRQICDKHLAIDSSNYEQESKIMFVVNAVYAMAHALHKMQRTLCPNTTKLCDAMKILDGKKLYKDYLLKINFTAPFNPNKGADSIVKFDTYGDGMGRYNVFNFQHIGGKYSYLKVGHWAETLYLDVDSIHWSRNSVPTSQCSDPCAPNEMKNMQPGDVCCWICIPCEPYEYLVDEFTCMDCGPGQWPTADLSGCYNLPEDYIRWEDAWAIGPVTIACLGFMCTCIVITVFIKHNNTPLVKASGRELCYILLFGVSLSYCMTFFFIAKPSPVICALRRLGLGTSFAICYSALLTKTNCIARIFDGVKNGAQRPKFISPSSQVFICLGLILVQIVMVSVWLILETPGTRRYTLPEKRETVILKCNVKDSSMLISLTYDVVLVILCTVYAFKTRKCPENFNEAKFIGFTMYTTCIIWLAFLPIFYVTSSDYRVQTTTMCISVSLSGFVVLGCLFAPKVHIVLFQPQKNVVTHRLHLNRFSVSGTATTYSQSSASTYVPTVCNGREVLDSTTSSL

Activity [1, 6] [%]	EC50 ([2]; read-out: EC50) [nM]	Activity [3, 6] [%]	EC50 ([4]; read-out: EC50) [nM]	Activity [1]	EC50 [4]	EC50 [2]	Activity [3]	Activity [5]	Compound
79	83	118	2410	–	–	–	–	–	Cc1c(O[C@H](C)COc2ccc(F)c(C(=O)O)c2)ccc(C(=O)CC(C)(C)C)c1O
86	261	94	1090	–	–	–	–	–	Cc1c(OC[C@@H](C)COc2ccc(C(=O)O)c(F)c2)ccc(C(=O)CC(C)(C)C)c1O
91	490	120	180	–	–	–	–	–	Cc1c(OCCCCOc2cncc(C(=O)O)c2)ccc(C(=O)CC(C)(C)C)c1O
98	75	114	1230	–	–	–	–	–	Cc1c(OCCCCOc2ccc(C(=O)O)cc2F)ccc(C(=O)CC(C)(C)C)c1O
–	> 10000	50	–	inactive	Not Active	–	–	–	Cc1c(OC[C@@H](C)COc2ccc3c(c2)C(=O)NC3)ccc(C(=O)CC(C)(C)C)c1O
73	377	120	2200	–	–	–	–	–	Cc1c(OC[C@@H](C)COc2ccc(Cl)c(C(=O)O)c2)ccc(C(=O)CC(C)(C)C)c1O
99	13	116	490	–	–	–	–	–	COc1ccc(OCCCCOc2ccc(C(=O)CC(C)(C)C)c(O)c2C)cc1C(=O)O
97	78	114	806	–	–	–	–	–	COc1ccc(C(=O)O)cc1OC[C@@H](C)Oc1ccc(C(=O)CC(C)(C)C)c(O)c1C
88	210	90	309	–	–	–	–	–	Cc1ccc(OCCCCOc2ccc(C(=O)CC(C)(C)C)c(O)c2C)cc1C(=O)O
–	–	–	–	inactive	Not Active	–	–	–	COC(=O)c1cc(OCCCCOc2ccc(C(=O)CC(C)(C)C)c(O)c2C)ccc1F
89	257	114	1120	–	–	–	–	–	Cc1c(O[C@@H](C)COc2ccc(F)c(C(=O)O)c2)ccc(C(=O)CC(C)(C)C)c1O
144	512	120	892	–	–	–	–	–	Cc1ccc(C(=O)O)cc1OCCCCOc1ccc(C(=O)CC(C)(C)C)c(O)c1C
–	> 10000	107	–	inactive	Not Active	–	–	–	Cc1c(OCCCCOc2ccc(F)c(C(N)=O)c2)ccc(C(=O)CC(C)(C)C)c1O
97	446	113	1520	–	–	–	–	–	Cc1cc(C(=O)O)ccc1OC[C@H](C)COc1ccc(C(=O)CC(C)(C)C)c(O)c1C
–	5060	82	–	inactive	Not Active	–	–	–	COc1ccc(C(=O)N(C)C)cc1OCC(C)COc1ccc(C(=O)CC(C)(C)C)c(O)c1C (single isomer, unassigned)
–	–	–	–	inactive	Not Active	Not Active	inactive	–	COc1cccc(OC[C@H](C)COc2ccc(C(=O)CC(C)(C)C)c(O)c2C)c1
92	112	99	1180	–	–	–	–	–	Cc1c(OC[C@@H](C)COc2ccc(F)c(C(=O)O)c2)ccc(C(=O)CC(C)(C)C)c1O
87	294	114	651	–	–	–	–	–	Cc1c(OC[C@H](C)COc2ccc(F)c(C(=O)O)c2)ccc(C(=O)CC(C)(C)C)c1O
74	–	–	3950	–	–	–	–	–	Cc1c(OCC(C)COc2cc(C(=O)O)ccc2F)ccc(C(=O)CC(C)(C)C)c1O (single isomer, unassigned)
111	63	98	384	–	–	–	–	Active	COc1ccc(C(=O)O)cc1OC[C@H](C)COc1ccc(C(=O)CC(C)(C)C)c(O)c1C
48	–	–	> 10000	–	–	–	–	–	Cc1ccc(OC[C@H](C)COc2ccc(C(=O)CC(C)(C)C)c(O)c2C)cc1C(=O)O

Activity [1, 6] [%]	EC50 ([2]; read-out: EC50) [nM]	Activity [3, 6] [%]	EC50 ([4]; read-out: EC50) [nM]	Activity [1]	EC50 [4]	EC50 [2]	Activity [3]	Activity [5]	Compound
–	3810	60	–	inactive	Not Active	–	–	–	Cc1c(OCCCCOc2ccc(F)c(C(=O)N(C)C)c2)ccc(C(=O)CC(C)(C)C)c1O
71	–	–	3820	–	–	–	–	–	COc1ccc(C(=O)O)cc1OC[C@H](C)Oc1ccc(C(=O)CC(C)(C)C)c(O)c1C
103	28	116	79	–	–	–	–	–	Cc1ncc(OCCCCOc2ccc(C(=O)CC(C)(C)C)c(O)c2C)cc1C(=O)O
117	112	125	1210	–	–	–	–	–	Cc1c(OC[C@@H](C)Oc2ccc(F)c(C(=O)O)c2)ccc(C(=O)CC(C)(C)C)c1O
93	28	110	512	–	–	–	–	–	COc1cc(C(=O)O)ccc1OC[C@H](C)COc1ccc(C(=O)CC(C)(C)C)c(O)c1C
98	477	97	1650	–	–	–	–	–	Cc1c(OCC(C)COc2ccc(C(=O)O)cc2Cl)ccc(C(=O)CC(C)(C)C)c1O (single isomer, unassigned)
91	137	117	2210	–	–	–	–	–	COc1ccc(C(=O)O)cc1O[C@@H](C)COc1ccc(C(=O)CC(C)(C)C)c(O)c1C
93	50	107	860	–	–	–	–	–	Cc1c(OC[C@@H](C)COc2ccc(C(=O)O)c(Cl)c2)ccc(C(=O)CC(C)(C)C)c1O
103	164	110	476	–	–	–	–	Active	CNC(=O)c1cc(OCCCCOc2ccc(C(=O)CC(C)(C)C)c(O)c2C)ccc1F
87	222	98	1300	–	–	–	–	–	Cc1c(OCC(C)COc2ccc(C(=O)O)cc2F)ccc(C(=O)CC(C)(C)C)c1O (single isomer, unassigned)
–	–	–	–	inactive	Not Active	Not Active	inactive	–	COc1ccccc1OCC(C)COc1ccc(C(=O)CC(C)(C)C)c(O)c1C (single isomer, unassigned)
88	194	94	1460	–	–	–	–	–	COc1cc(OC[C@H](C)COc2ccc(C(=O)CC(C)(C)C)c(O)c2C)ccc1C(=O)O
120	–	–	1040	–	–	–	–	–	COc1ccc(C(=O)O)cc1OC[C@@H](C)COc1ccc(C(=O)CC(C)(C)C)c(O)c1C
111	–	–	1850	–	–	–	–	–	COc1ccc(C(=O)O)cc1O[C@H](C)COc1ccc(C(=O)CC(C)(C)C)c(O)c1C
105	142	122	1100	–	–	–	–	–	Cc1c(OC[C@H](C)Oc2ccc(F)c(C(=O)O)c2)ccc(C(=O)CC(C)(C)C)c1O
107	80	108	1110	–	–	–	–	–	Cc1c(OCCCCOc2ccc(C(=O)O)c(F)c2)ccc(C(=O)CC(C)(C)C)c1O
102	102	116	703	–	–	–	–	–	COc1cc(OCCCCOc2ccc(C(=O)CC(C)(C)C)c(O)c2C)cc(C(=O)O)c1
87	87	112	130	–	–	–	–	–	Cc1c(OCCCCOc2ccc(Cl)c(C(=O)O)c2)ccc(C(=O)CC(C)(C)C)c1O
80	305	91	1350	–	–	–	–	–	Cc1cc(OC[C@H](C)COc2ccc(C(=O)CC(C)(C)C)c(O)c2C)ccc1C(=O)O
–	> 10000	103	–	inactive	Not Active	–	–	–	COc1ccc(OCCCCOc2ccc(C(=O)CC(C)(C)C)c(O)c2C)cc1
